# Measured values from patent publication US20160377571A1, “BIOSENSOR” (University of Leeds, priority 2007, published 2016).
# Key:
# [1] = AC voltammetry (capacitance-potential scans) of DOPC monolayer on hanging mercury drop electrode (HMDE) with analyte in electrolyte
# Procedure: The HMDE was based on using a capillary with a diameter of 0.1 mm so as to provide a surface area for the mercury drop about the same as the surface area of the mercury in the electrode in accordance with the invention.
# Experiments were performed in 0.1M Kcl.
# [2] = for response of the electrode of the invention to the test compound (depression of capacitance peaks): 0.5 μmol dm^−3 in 0.1M KCl
# Procedure: The HMDE and the electrode of the invention were compared side-by-side in a static cell configuration. All experiments were carried out in 0.1 M potassium chloride solution. Measurements were taken at 75 Hz between −0.4 to −1.15 V with 4.95 mV rms at a scan rate of 5 mV
# This Example compares a HMDE electrode with an electrode as produced in accordance with Example 3, both coated with a monolayer film of 1,2-dioleoyl-sn-glycero-3-phosphocholine (DOPC), new layers of which were deposited between consecutive scans. Experiments were performed in 0.1M Kcl. A negative going ‘forward’ potential scan was performed between −0.4 V and −1.15 V, and then followed immediately by a positive going ‘reverse’ scan from −1.15 V to −0.4 V with 4.95 mV rms at a scan rate of 5 mVs^−1.
# [3] = Pt/Hg electrode, DOPC monolayer, compared with HMDE
SMILES,response of the HMDE to the test compound ([1]; 5 μmol dm^−3),"response of the electrode of the invention to the test compound (depression of capacitance peaks) [2, 3]","response of the electrode of the invention to the test compound ([2]; 5 μmol dm^−3, Pt/Hg electrode, DOPC monolayer, compared with HMDE)",sensitivity converted to ppb ([2]; assuming a density for the solution of 1 g per ml),response of the HMDE to the test compound ([1]; 0.5 μmol dm^−3 in 0.1M KCl)
NC(=O)c1cc[n+](COC[n+]2ccccc2C=NO)cc1 [H16],large response,far greater response,slightly larger response,–,–
CN(C)CCCN1c2ccccc2Sc2ccc(Cl)cc21 [chlorpromazine],–,–,–,approximately 18 ppb,–
CC(CN1c2ccccc2Sc2ccccc21)N(C)C (stereo not drawn) [promethazine],–,stronger response (greater depression of the peaks),–,–,show response
